{"source": "patent US7807193B2", "about": "(priority 2002, dated 2010)", "origin": "cited, not measured here", "key": {"[1]": {"conditions": "patients having adult onset diabetes, drug treatment therapy versus insulin treatment"}, "ob/ob mice": {"tested_on": "ob/ob mice", "conditions": "homozygous diabetic mouse model (ob/ob); U.S. application 20020037861 A1"}}}
{"smiles": "CN(C)C(=N)N=C(N)N", "note": "[metformin]", "values": [{"measurement": "Mortality rates", "setting": "[1]", "result": 8, "unit": "%"}]}
{"smiles": "CC1(C)O[C@@H]2[C@@H](CO[C@@]3(COS(N)(=O)=O)OC(C)(C)O[C@@H]23)O1", "note": "[topiramate, 2,3:4,5-bis-O-(1-methylethylidene)-β-D-fructopyranose sulfamate]", "values": [{"measurement": "Levels of blood glucose, triglycerides, insulin and glycosylated hemoglobin versus control ob/ob mice not given topiramate", "setting": "ob/ob mice", "result": "significantly lower"}]}
